From patent publication US5972956A, “Inhibition of amyloidosis by 9-acridinones” (Warner-Lambert Company, priority 1998, dated 1999)

Molecular target: T1, beta amyloid peptide (1-40) (Homo sapiens, UniProt P05067)
T1 construct: beta amyloid peptide (1-40)
Test: in vitro amyloid aggregation assay (filtration of I125-labeled peptide aggregates)
Type: biochemical
Conditions: beta amyloid peptide (1-40) with I125 labeled peptide, sodium phosphate buffer pH 6.0, 2 hours at room temperature; read-out: IC50, concentration required to cause a 50% inhibition of amyloid aggregation
Method: The ability of the 9-acridinone compounds of the above formula to inhibit amyloid aggregation has been established in a standard in vitro assay. The assay is carried out by mixing beta amyloid peptide (1-40) with radioiodinated (I^125) labeled peptide to a concentration of 2.5 mg/mL in hexafluoroisopropanol. The mixture is diluted 1 to 5 with water (v/v). […] of the solution is mixed with 25 μL of 25 mM sodium phosphate buffer pH 6.0. The mixture is allowed to aggregate for 2 hours at room temperature with and without a test compound present. The mixtures are then diluted to 235 μL with phosphate buffer to stop the aggregation process. The solutions are passed through a 0.2-μm millipore filtermat. Aggregated protein remains in the filter well. The filter plate is washed with 50 μL of phosphate buffer and then soaked in solid gel scintillant and counted on a Microbeta counter to determine the amount of aggregation in the presence of a test compound versus control with no test compound.
Several representative 9-acridinone compounds have been evaluated in the above assay and shown to inhibit amyloid aggregation. The following table presents the activity of selected compounds, reported as the molar concentration of compounds required to cause a 50% inhibition (IC50) of amyloid aggregation in the above assay.

T1 sequence (P05067 672-711 limits assumed): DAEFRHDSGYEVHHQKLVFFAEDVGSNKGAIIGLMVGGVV

IC50	Compound
13.9 µM	CCN(CC)CCNc1ccc([N+](=O)[O-])c2[nH]c3ccc(OC)cc3c(=O)c12 [compound 10]
29.5 µM	CCN(CC)CCNc1ccc([N+](=O)[O-])c2[nH]c3ccccc3c(=O)c12 [compound 11]
23.2 µM	CCN(CC)CCNc1ccc([N+](=O)[O-])c2c1c(=O)c1cc(OC)ccc1n2C [compound 12]
24.3 µM	CCOc1ccc2[nH]c3c([N+](=O)[O-])ccc(NC(C)CN(C)C)c3c(=O)c2c1 (stereo not shown) [compound 13]

Continued, compound first:

Compound	IC50
CCN(CC)CCNc1ccc([N+](=O)[O-])c2[nH]c3ccc(O)cc3c(=O)c12 [Compound No. 9]	20.5 µM
CSc1ccc2[nH]c3c([N+](=O)[O-])ccc(NCCCN(C)C)c3c(=O)c2c1 [compound 1]	7.1 µM
CCN(CC)CCNc1ccc([N+](=O)[O-])c2[nH]c3ccc(SC)cc3c(=O)c12 [compound 2]	9 µM
CCN(CC)CCNc1ccc([N+](=O)[O-])c2[nH]c3cc(OC)c(OC)cc3c(=O)c12 [compound 3]	11 µM
CCCCOc1ccc2[nH]c3c([N+](=O)[O-])ccc(NCCN(C)C)c3c(=O)c2c1 [compound 4]	25 µM
CCN(CC)CCCNc1ccc([N+](=O)[O-])c2[nH]c3ccc(OC)cc3c(=O)c12 [compound 5]	21 µM
CCN(CC)CCNc1ccc([N+](=O)[O-])c2[nH]c3cc(Cl)c(OC)cc3c(=O)c12 [compound 6]	18.7 µM
CCN(CC)CCNc1ccc([N+](=O)[O-])c2[nH]c3ccc(OCCN(CC)CC)cc3c(=O)c12 [compound 7]	35.6 µM
CCOc1ccc2[nH]c3c([N+](=O)[O-])ccc(NCCN(CCO)CCO)c3c(=O)c2c1 [compound 8]	20 µM
